The values that follow come from patent publication US8962674B2 (Tokyo Institute of Technology, priority 2006, dated 2015).

The target of one data set is recombinant human BACE-1 (Homo sapiens (Human), UniProt P56817). Nature of the data set: Calculation of 50% inhibitory concentration (IC50) of BACE-1 (Test Example 5). The format is biochemical. The conditions noted are these: 37° C., 2.5 hr, fluorescent substrate peptide. Here is the method:
Compounds were dissolved in 0.1 M sodium acetate buffer (with 150 mM sodium chloride, pH 4.5) to each concentration with DMSO (concentration of compounds: 0.3, 0.9, 3.0, 9.0, and 30.0). The final concentration of DMSO was 10%. The solution with no compound was used as a negative control. 15 μL of these solutions, recombinant human BACE-1 (1.0 U/ml, Invitrogen), and the fluorescent substrate peptide (2.5 nM) were mixed in a black 384-well plate (Costar). Then, mixtures were incubated in the dark at 37° C. for 2.5 hr. The fluorescence intensities of the mixtures were measured at 540 nm for excitation and at 590 nm for emission. The inhibition ratio was calculated as a percentage of the negative control. The sequence of the peptide was […] and labeled with Cy3 at Ser-1 and with Cy5Q at Lys-9. Final concentrations of compounds were as follows: […].

Data set [1] addresses recombinant human β-secretase (rhBACE-1) (Homo sapiens (Human), UniProt P56817). Nature of the data set: β-Secretase enzyme inhibition assay (Test Example 1). The format is biochemical. Conditions: compound solution 3 μM (FIG. 1 legend: 1.0 μM), 37° C., 2 hr, fluorescent substrate peptide. The procedure:
β-Secretase Enzyme Inhibition Assay
Compounds were dissolved in dimethylsulfoxide (DMSO), and further diluted in 0.1 M sodium acetate buffer (with 150 mM sodium chloride, pH 4.5). The solution with no compound was used as a negative control. Then, 100 μL of these solutions (compound concentration: 3 μM), 1 μL of recombinant human β-secretase (rhBACE-1, R&D), and 5 μL of the fluorescent substrate peptide were mixed in a black 96-well plate (Nunc). After mixtures were incubated in the dark at 37° C. for 2 hr, the fluorescence intensities of the mixtures were measured by fluorescence microplate reader (Wallac) at 540 nm for excitation and at 590 nm for emission. The inhibition ratio was calculated as a percentage of the negative control. The sequence of the peptide was […] and labeled with fluorescent donor (Cy3) at Ser-1 and with quencher (Cy5Q) at Lys-9, respectively (Invitrogen).

Chain of recombinant human β-secretase (rhBACE-1) (P56817 46-501): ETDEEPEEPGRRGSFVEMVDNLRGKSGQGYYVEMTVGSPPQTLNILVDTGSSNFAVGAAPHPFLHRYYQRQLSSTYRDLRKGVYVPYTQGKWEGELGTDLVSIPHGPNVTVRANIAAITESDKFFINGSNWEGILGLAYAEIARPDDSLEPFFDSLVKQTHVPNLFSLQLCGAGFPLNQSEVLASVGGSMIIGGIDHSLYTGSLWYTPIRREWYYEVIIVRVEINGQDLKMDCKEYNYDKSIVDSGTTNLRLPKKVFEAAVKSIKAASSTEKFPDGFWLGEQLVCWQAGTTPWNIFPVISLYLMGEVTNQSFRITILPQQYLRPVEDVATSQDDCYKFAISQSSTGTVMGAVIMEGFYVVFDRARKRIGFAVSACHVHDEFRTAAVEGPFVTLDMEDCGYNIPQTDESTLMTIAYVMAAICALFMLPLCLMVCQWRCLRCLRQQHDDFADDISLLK
Chain of recombinant human BACE-1 (P56817 46-501): as above

With `COc1cc(/C=C/C(=O)CC(=O)/C=C/c2cc(O)ccc2[N+](=O)[O-])ccc1O` [CU132, (1E,6E)-1-(4-hydroxy-3-methoxyphenyl)-7-(5-hydroxy-2-nitrophenyl)hepta-1,6-diene-3,5-dione], the melting point lay in the range of 147 to 152 °C. Also, the “inhibitory effect on BACE-1 activity (IC50 shown in FIG. 2)” value (from here on “inhibitory effect on BACE-1 activity”) at recombinant human BACE-1 was “inhibitory effect on BACE-1 activity at relatively low concentration”.
For `O=C(/C=C/c1ccc(O)cc1)CC(=O)/C=C/c1c[nH]c2cccc([N+](=O)[O-])c12` [CU461, (1E,6E)-1-(4-hydroxyphenyl)-7-(4-nitro-1H-indol-3-yl)hepta-1,6-diene-3,5-dione], the melting point was in the range of 228 to 232 °C. The “inhibitory effect on BACE-1 activity” value on recombinant human BACE-1 is recorded as “inhibitory effect on BACE-1 activity at relatively low concentration”.
The compound `COc1ccc(/C=C/C(=O)CC(=O)/C=C/c2cccc(O)c2OC)cc1O` [CU176, (1E,6E)-1-(3-hydroxy-2-methoxyphenyl)-7-(3-hydroxy-4-methoxyphenyl)hepta-1,6-diene-3,5-dione] showed a melting point of 190 to 192 °C. Further, the “inhibition of BACE-1 enzyme activity (inhibitory activities (%) shown in FIG. 1)” value in data set [1] was “strongly inhibited”.
In the case of `O=C(/C=C/c1ccc(O)cc1)CC(=O)/C=C/c1c[nH]c2ccccc12` [CU110, (1E,6E)-1-(4-hydroxyphenyl)-7-(1H-indol-3-yl)hepta-1,6-diene-3,5-dione], the melting point lay in the range of 215 to 220 °C. The “inhibition of BACE-1 enzyme activity (inhibitory activities (%) shown in FIG. 1)” value in data set [1] was “strongly inhibited”.
For `COc1cc(/C=C/C(=O)CC(=O)/C=C/c2ccc(O)c(C)c2)ccc1O` [CU031, (1E,6E)-1-(4-hydroxy-3-methoxyphenyl)-7-(4-hydroxy-3-methylphenyl)hepta-1,6-diene-3,5-dione] the same measures were 173 to 175 °C and “strongly inhibited”.
On to `O=C(/C=C/c1cc(O)ccc1[N+](=O)[O-])CC(=O)CCc1ccc(O)cc1` [CU530, (E)-1-(5-hydroxy-2-nitrophenyl)-7-(4-hydroxyphenyl)hept-1-ene-3,5-dione], for which the melting point fell in the range of 62 to 70 °C. Also, at recombinant human BACE-1, the “inhibitory effect on BACE-1 activity” value was “inhibitory effect on BACE-1 activity at relatively low concentration”.
`COc1ccc(/C=C/C(=O)CC(=O)/C=C/c2ccc3[nH]ccc3c2)cc1O` [CU193, (1E,6E)-1-(3-hydroxy-4-methoxyphenyl)-7-(1H-indol-5-yl)hepta-1,6-diene-3,5-dione] gave a melting point of 182 to 185 °C. For the same compound, the “inhibition of BACE-1 enzyme activity (inhibitory activities (%) shown in FIG. 1)” value in data set [1] is on record as “strongly inhibited”.
The compound `COc1ccc(/C=C/C(=O)CC(=O)/C=C/c2c(OC)cccc2OC)cc1O` [CU104, (1E,6E)-1-(2,6-dimethoxyphenyl)-7-(3-hydroxy-4-methoxyphenyl)hepta-1,6-diene-3,5-dione] had a melting point of 74 to 80 °C. Also, the “inhibition of BACE-1 enzyme activity (inhibitory activities (%) shown in FIG. 1)” value in data set [1] is reported as “strongly inhibited”.
For `COc1cc(/C=C/C(=O)CC(=O)/C=C/c2cccn2C)ccc1O` [CU121, (1E,6E)-1-(4-hydroxy-3-methoxyphenyl)-7-(1-methyl-1H-pyrrol-2-yl)hepta-1,6-diene-3,5-dione] the same measures were 131 to 132 °C and “strongly inhibited”.
For `COc1ccc(/C=C/C(=O)CC(=O)/C=C/c2ccc(O)cc2)c2ccccc12` [CU116, (1E,6E)-1-(4-hydroxyphenyl)-7-(4-methoxynaphthalen-1-yl)hepta-1,6-diene-3,5-dione] the same measures were 193 to 198 °C and “strongly inhibited”.
As to `COc1ccc(/C=C/C(=O)CC(=O)/C=C/c2cccn2C)cc1O` [CU122, (1E,6E)-1-(3-hydroxy-4-methoxyphenyl)-7-(1-methyl-1H-pyrrol-2-yl)hepta-1,6-diene-3,5-dione], the “inhibition of BACE-1 enzyme activity (inhibitory activities (%) shown in FIG. 1)” value in data set [1] was “strongly inhibited”.
The same measure, in the same setting: the same measure for `COc1cc(/C=C/C(=O)CC(=O)/C=C/c2ccc3cc[nH]c3c2)ccc1O` [CU190, (1E,6E)-1-(4-hydroxy-3-methoxyphenyl)-7-(1H-indol-6-yl)hepta-1,6-diene-3,5-dione]: “strongly inhibited”.
Compound `COc1ccc(/C=C/C(=O)CC(=O)/C=C/c2cc(O)cc(O)c2)cc1O` [CU094, (1E,6E)-1-(3,5-dihydroxyphenyl)-7-(3-hydroxy-4-methoxyphenyl)hepta-1,6-diene-3,5-dione] showed a melting point of 190 to 193 °C. For the same compound, the “inhibition of BACE-1 enzyme activity (inhibitory activities (%) shown in FIG. 1)” value in data set [1] was “strongly inhibited”.
`COc1cc(/C=C/C(=O)CC(=O)/C=C/c2cccc(O)c2OC)ccc1O` [CU001, (1E,6E)-1-(3-hydroxy-2-methoxyphenyl)-7-(4-hydroxy-3-methoxyphenyl)hepta-1,6-diene-3,5-dione] gave a melting point of 152 to 155 °C. The “inhibition of BACE-1 enzyme activity (inhibitory activities (%) shown in FIG. 1)” value in data set [1] was “strongly inhibited”.
In the case of `O=C(/C=C/c1ccc(O)cc1)CC(=O)/C=C/c1cc(OCc2ccccc2)ccc1Br` [CU531, (1E,6E)-1-(5-benzyloxy-2-bromophenyl)-7-(4-hydroxyphenyl)hepta-1,6-diene-3,5-dione], at recombinant human BACE-1, the “inhibitory effect on BACE-1 activity” value is on record as “inhibitory effect on BACE-1 activity at relatively low concentration”.
As to `O=C(/C=C/c1ccc(O)cc1)CC(=O)/C=C/c1cccc2ccccc12` [CU112, (1E,6E)-1-(4-hydroxyphenyl)-7-(naphthalen-1-yl)hepta-1,6-diene-3,5-dione], the “inhibition of BACE-1 enzyme activity (inhibitory activities (%) shown in FIG. 1)” value in data set [1] was “strongly inhibited”.
As to `CN(C)c1ccc(/C=C/C(=O)CC(=O)/C=C/c2ccc(O)cc2)c([N+](=O)[O-])c1` [CU194, (1E,6E)-1-(4-dimethylamino-2-nitrophenyl)-7-(4-hydroxyphenyl)hepta-1,6-diene-3,5-dione], the melting point lay within 217 to 222 °C. The “inhibition of BACE-1 enzyme activity (inhibitory activities (%) shown in FIG. 1)” value in data set [1] was “strongly inhibited”.
For `CCn1c2ccccc2c2cc(/C=C/C(=O)CC(=O)/C=C/c3ccc(O)c(OC)c3)ccc21` [CU017, (1E,6E)-1-(9-ethyl-9H-carbazol-3-yl)-7-(4-hydroxy-3-methoxyphenyl)hepta-1,6-diene-3,5-dione] the same measures were 165 to 169 °C and “strongly inhibited”.
Consider `O=C(/C=C/c1ccc(O)cc1)CC(=O)/C=C/c1ccc2[nH]ccc2c1` [CU187, (1E,6E)-1-(4-hydroxyphenyl)-7-(1H-indol-5-yl)hepta-1,6-diene-3,5-dione], for which the melting point lay in the range of 222 to 226 °C. The “inhibition of BACE-1 enzyme activity (inhibitory activities (%) shown in FIG. 1)” value in data set [1] is reported as “strongly inhibited”.
The matching figures for `O=C(/C=C/c1ccc(O)cc1)CC(=O)/C=C/c1ccc(O)c(F)c1` [CU030, (1E,6E)-1-(3-fluoro-4-hydroxyphenyl)-7-(4-hydroxyphenyl)hepta-1,6-diene-3,5-dione]: 190 to 192 °C and “strongly inhibited”.
With `Cn1cc(/C=C/C(=O)CC(=O)/C=C/c2ccc(O)cc2)cn1` [CU198, (1E,6E)-1-(4-hydroxyphenyl)-7-(1-methyl-1H-pyrrazol-4-yl)hepta-1,6-diene-3,5-dione], the “inhibition of BACE-1 enzyme activity (inhibitory activities (%) shown in FIG. 1)” value in data set [1] is listed as “strongly inhibited”.

Broadly, the melting point is the temperature, or range, at which the solid turns liquid.
